Measured values from patent publication US20170209473A1, “ADIPONECTIN SECRETION REGULATOR” (THE UNIVERSITY OF TOKYO, priority 2014, published 2017).

Tests used:
Assay type in all cases: cell-based, Mouse
adiponectin = assay: Adiponectin expression by adipocytes, reducing SDS-PAGE / Western blotting of culture supernatant; details: 3T3-L1-derived adipocytes, 24 hours serum-free DMEM, FIG. 1
Experimental: (§1) Mouse 3T3-L1 fibroblasts in a confluent state were induced with insulin to differentiate into adipocytes. The cells were then cultured for 48 hours in a DMEM medium containing 10% FBS. The cells were then cultured for 24 hours in a serum-free DMEM medium including L-fucose and/or D-glucose at the concentrations for each test section indicated in Table 1.
(§2) After culturing, the culture supernatant was collected and mixed with an equal amount of reducing SDS-PAGE (polyacrylamide gel electrophoresis) loading buffer and held for 10 minutes at 100° C., a 5-10-μL sample for each lane was subjected to SDS-PAGE, and the nuclear-receptor-type transcription factor PPAR-gamma, actin as an internal standard protein, and adiponectin were detected by a Western blotting method using specific antibodies for each in accordance with the usual method. A near-infrared fluorescence imager (“Odyssey Fc,” manufactured by LI-COR, Inc.) was used for the detection, and the relative expression levels of each protein were compared.

[1] = test system: nuclear-receptor-type transcription factor PPAR-gamma; assay: PPAR-gamma expression in adipocytes, Western blotting; details: 3T3-L1-derived adipocytes, 24 hours, FIG. 1
Experimental: as §1, §2

[2] = test system: adiponectin monomers, trimers, hexamers and multimers; assay: Adiponectin multimerization state, non-reducing SDS-PAGE / Western blotting of culture supernatant; details: FIG. 2
Experimental: as §1
The cell culture supernatant in the same test sections as in Test Example 1 was collected, equivalent samples for each test section were subjected to non-reducing SDS-PAGE, and adiponectin monomers appearing at a molecular weight position of approximately 30 kDa, trimers appearing at a position of approximately 100 kDa, hexamers appearing at a position of approximately 200 kDa, and multimers appearing at higher molecular weight positions were detected by a Western blotting method using specific antibodies for adiponectin. A near-infrared fluorescence imager (“Odyssey Fc,” manufactured by LI-COR, Inc.) was used for the detection, and the various multimerization states were compared.

[3] = 0.1 w/v % glucose + 0.1 w/v % L-fucose (test section 2) vs test section 1, tendency more pronounced at low glucose
[4] = 0.45 w/v % glucose + 0.1 w/v % L-fucose (test section 4) vs test section 3

## C[C@H](O)[C@@H](O)[C@@H](O)[C@H](O)C=O [L-fucose]
adiponectin; 0.1 w/v % glucose + 0.1 w/v % fucose (test section 2) vs test section 1 without fucose
  expression level of adiponectin: tendency for the expression level of adiponectin to decrease
adiponectin; 0.45 w/v % glucose + 0.1 w/v % fucose (test section 4) vs test section 3 without fucose
  expression level of adiponectin: tendency for the expression level of adiponectin to decrease
[1]; 0.1 w/v % D-glucose + 0.1 w/v % L-fucose (test section 2) vs test section 1
  expression level of PPAR-gamma: almost no change
[1]; 0.45 w/v % D-glucose + 0.1 w/v % L-fucose (test section 4) vs test section 3
  expression level of PPAR-gamma: slight decrease
[2]; [3]
  adiponectin multimers: increased
  incidence of adiponectin monomers, trimers, and hexamers: reduced
[2]; [4]
  adiponectin multimers: increased
  incidence of adiponectin monomers, trimers, and hexamers: reduced
